Test results published in ChEMBL document CHEMBL4024743, “BACE-1 Inhibitors: From Recent Single-Target Molecules to Multitarget Compounds for Alzheimer's Disease” (J Med Chem, 2018).
pIC50: −log10 of the molar value. Each block holds one compound with its values, some of them ahead of it.

Tests used:
[1] = target: Glycogen synthase kinase-3 beta (Homo sapiens, UniProt P49841); assay: Inhibition of recombinant human GSK3beta using prephosphorylated polypeptide as substrate preincubated for 30 mins followed by addition of kinase-glo stop solution measured after 10 mins by Kinase-Glo luminescence assay
[2] = Drug uptake in CD16 mouse brain at 3 mg/kg, po after 30 mins by LC-MS/MS analysis; assay type: ADME, organism-based; settings: read-out: Drug uptake
[3] = Oral bioavailability in CD16 mouse at 10 mg/kg; assay type: ADME, organism-based; settings: in vivo
Beta-secretase 1 [4] = target: T1, Beta-secretase 1 (Homo sapiens, UniProt P56817); assay: Inhibition of human BACE-1 preincubated for 1 hr followed by substrate addition measured after 60 mins by FRET assay
Beta-secretase 1 [5] = target: T1, Beta-secretase 1
Description: Inhibition of BACE-1 (unknown origin) using APP derived polypeptide harboring Lys-Met/Asn-Leu mutation as substrate by FRET assay

Beta-secretase 1 [6] = target: T1, Beta-secretase 1; assay: Inhibition of BACE-1 (unknown origin)

T1 sequence (P56817 whole entry): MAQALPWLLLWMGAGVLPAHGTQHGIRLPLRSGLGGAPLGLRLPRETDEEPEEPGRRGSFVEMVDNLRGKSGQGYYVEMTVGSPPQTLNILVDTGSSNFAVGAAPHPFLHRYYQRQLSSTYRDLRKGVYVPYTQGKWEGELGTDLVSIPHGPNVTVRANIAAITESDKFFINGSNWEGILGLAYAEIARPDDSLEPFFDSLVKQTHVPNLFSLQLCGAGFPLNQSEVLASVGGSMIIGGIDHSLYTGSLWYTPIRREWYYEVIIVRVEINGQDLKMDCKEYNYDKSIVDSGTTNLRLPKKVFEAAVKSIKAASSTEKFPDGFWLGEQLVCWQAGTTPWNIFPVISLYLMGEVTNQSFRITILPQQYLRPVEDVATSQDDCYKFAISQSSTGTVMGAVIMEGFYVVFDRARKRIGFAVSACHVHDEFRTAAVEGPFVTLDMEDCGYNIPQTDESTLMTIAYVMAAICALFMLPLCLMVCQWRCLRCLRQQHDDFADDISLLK
Glycogen synthase kinase-3 beta, sequence (P49841 whole entry): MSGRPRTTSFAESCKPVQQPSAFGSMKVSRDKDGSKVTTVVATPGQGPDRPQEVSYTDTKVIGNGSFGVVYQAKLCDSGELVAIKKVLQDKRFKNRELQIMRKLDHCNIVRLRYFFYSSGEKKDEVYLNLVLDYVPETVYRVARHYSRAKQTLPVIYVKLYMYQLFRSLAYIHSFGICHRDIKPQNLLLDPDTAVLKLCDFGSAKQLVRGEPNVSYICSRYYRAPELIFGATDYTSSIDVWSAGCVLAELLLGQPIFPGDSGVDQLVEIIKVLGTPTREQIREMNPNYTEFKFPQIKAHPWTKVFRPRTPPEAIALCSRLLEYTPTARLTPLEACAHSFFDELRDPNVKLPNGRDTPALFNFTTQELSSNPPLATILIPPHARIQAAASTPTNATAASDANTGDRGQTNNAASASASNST

SMILES: OC1=C2Nc3ccccc3N=C2OC1c1c[nH]c2ccc(COc3ccccc3)cc12 (stereo not drawn)
pIC50 (Beta-secretase 1 [4]): 5.74

SMILES: O=C1NC(=O)C2C=CNC2N1 (stereo not drawn)
pIC50 (Beta-secretase 1 [6]): 4.52

SMILES: O=C1CSC2(CCN(CCCN3c4ccccc4Sc4ccc(Cl)cc43)CC2)N1 [SPICLOMAZINE]
pIC50 (Beta-secretase 1 [4]): 5.18

Second part, the compound after the results:

pIC50 [1]: 4.83
concentration at 0.5 h [2]: 620 nM
bioavailability [3]: 66%
SMILES: NC1=NC(c2ccc(F)cc2)NC(=O)N1 (stereo not drawn)

pIC50 (Beta-secretase 1 [5]): 6.94
SMILES: CC#Cc1cncc(-c2ccc3c(c2)[C@]2(CO3)N=C(N)C[C@@H]2C(F)(F)F)c1

pIC50 (Beta-secretase 1 [4]): 5.82
SMILES: CC1Cc2ccc(OC(=O)c3ccc(NC(=N)N)cc3)cc2OC1=O (stereo not drawn)
